Laboratory results published in patent publication US20200407717A1, “METHODS OF MODULATING ANTISENSE ACTIVITY” (Ionis Pharmaceuticals, Inc., priority 2018, published 2020).
In the oligonucleotide strings, read from the 5' end, every base follows the letter of its sugar. An asterisk marks phosphorothioate; unmarked linkages are phosphodiester. Other units and linkages are bracketed, terminal groups are in braces. A string of capitals states the bases alone. e = 2'-O-(2-methoxyethyl) (MOE); {AF594} = Alexa Fluor 594 dye; k = constrained ethyl (cEt); {FITC} = fluorescein label; [5mC] = 5-methylcytosine; d = 2'-deoxy (DNA)

Tests used:
[1] = target: T1, EGFR (Homo sapiens, UniProt P00533); assay: Direct NanoBRET binding assay; parameters: made in house; host or cells: HEK293 cells; settings: Direct BRET, AF594-labeled oligonucleotide 0.1-10,000 nM
Experimental: (§1) NanoBRET (bioluminescence resonance energy transfer) binding assays were performed as described in Vickers and Crooke. PLOS One, 11(8), (2016). An EGFR NLuc construct was prepared by first amplifying human EGFR from the full length cDNA clone (Origene RC217223) with forward PCR primer 5′-[…]-3′ (SEQ ID NO: 1) and reverse PCR primer 5′-[…] (SEQ ID NO: 2). The amplified product was ligated into the NheI and XhoI sites of the NanoLuc expression vector pFC32K Nluc CMV-Neo (Promega). Protein was expressed in HEK293 cells and isolated using Protein G magnetic beads. For competitive BRET, the Alexafluor594-labeled modified oligonucleotide 766636 was diluted into water in opaque white 96-well plates at 10 nM and competed with 0.1-10,000 nM of unlabeled modified oligonucleotide. […] of 2× binding buffer containing […] (relative luminescence units) beads/well was added and plates were shaken for 10 minutes at room temperature. Nanoluciferase activity and BRET were measured in a Glowmax Discover plate reader and EC50 values, shown in the tables below, were calculated using GraphPad Prism. For direct BRET, Alexafluor594 modified nucleotides were diluted at 0.1-10,000 nM and experiments were performed as described above.

[2] = tested on: EGF-EGFR signaling; assay: EGFR signaling western blot (p-EGFR, p-ERK), A431 cells; type: cell-based; settings: for EGFR signaling: 2 μM for 16 hours
Experimental: In order to test the effects of a PS-ASO on EGFR signaling, A431 cells were incubated with compound no. 116847 or no PS-ASO compound for 16 hours. All cells were then treated with EGF prior to being subjected to the pulse-chase protocol described above. Cell lysates were run on a SDS-PAGE gel and analyzed by sequential western blot for phosphorylated EGFR (P-EGFR), total EGFR (T-EGFR), phosphorylated ERK (P-ERK), and total ERK (T-ERK) using the antibodies described above for EGFR, 4370 for P-ERK (Cell Signaling Technology), and 4695 for T-ERK (Cell Signaling Technology).
110080, 25690, 25699, 395251, or 395254 at 2 μM for 16 hours prior to carrying out the pulse-chase experiment described above.

[3] = tested on: EGFR; assay: Pulse-chase EGFR synthesis and degradation, A431 cells; type: cell-based
Experimental: In order to test the effects of a PS-ASO on EGFR synthesis and degradation, A431 cells were incubated with either compound no. 116847 or no PS-ASO compound for 16 hours. A pulse-chase protocol was then performed in which the cells were incubated for 20 minutes in cysteine and methionine free media followed by incubation with [^35S]-Met and [^35S]-Cys in order to analyze newly synthesized protein. Cell samples were collected in RIPA buffer after 50 minutes (FIG. 6A) or at the times indicated in the tables below, and cell lysates were immunoprecipitated with EGFR antibody or s100a10 antibody (610071, BD Bioscience). The resulting, labeled immunocomplexes were resolved by SDS-PAGE and visualized by autoradiography using phosphoimager. FIG. 6A and Table 13 show the levels of nascent EGFR protein and nascent s100a10, a control protein. […] 116847 relative to cells that were not incubated with an ASO.

[4] = target: T1, EGFR; assay: Competitive NanoBRET binding assay; parameters: made in house; host or cells: HEK293 cells; settings: Competitive BRET vs 10 nM AF594-labeled 766636
Experimental: as §1

[5] = target: T1, EGFR; assay: Competitive BRET in absence or presence of exogenous EGF; type: binding; parameters: made in house; host or cells: HEK293 cells
Experimental: as §1
The binding affinities for EGFR of PS-ASOs with various sugar modifications were measured with competitive BRET, as described in Example 1. 10 nM compound no. […]

[6] = target: T2, Purified recombinant EGF (Homo sapiens, UniProt P01133); assay: Membrane binding assay, EGF; settings: EGF 3 nM to 3 μM
T2 construct: purchased ThermoFisher PHG0311L
T2 sequence (P01133 971-1023 limits assumed): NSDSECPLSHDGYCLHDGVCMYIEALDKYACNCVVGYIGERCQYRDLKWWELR
Experimental: (§2) A membrane binding assay was performed to test the binding affinities of modified oligonucleotides to EGF and EGFR. Purified recombinant EGF (PHG0311L, ThermoFisher) or EGFR protein (PV3872, ThermoFisher) were incubated with FITC-labeled phosphorothioate oligonucleotide, compound no. 256903 or FITC-labeled phosphate oligonucleotide, PO-ASO, in binding buffer (20 mM Tris-HCl, pH 7.5, 150 mM NaCl, 1 mM DTT, 10% glycerol) for 1 hr at 37° C. Each reaction contained purified EGF at 3 nM to 3 μM or recombinant EGFR at 5 nM to 150 nM. Samples were loaded onto a hyband ECL nitrocellulose membrane (GE Healthcare) and soaked in wash buffer (20 mM Tris-HcCl, pH 7.5, 250 mM NaCl). Protein-bound ASOs were transferred to the membrane by applying a vaccum in a 96-well Bio-Rad Bio-Dot apparatus. After washing, membranes were air-dried and scanned using a phoshoimager (GE Healthcare). Kds were calculated for compound no. 256903 using Prism. The results below represent an average of three replicate experiments. […] In contrast, compound no. 256903 bound to both EGF and EGFR, with a higher affinity for EGFR than for EGF.

[7] = target: T1, EGFR; assay: Membrane binding assay, EGFR; parameters: purchased ThermoFisher PV3872; settings: EGFR 5 nM to 150 nM
Experimental: as §2

For “AF594-GksGks^mCdsTdsAds^mCdsTdsAds^mCdsGds^mCds^mCdsGdsTks^mCksAk (antisense {AF594}-kG*kG*d[5mC]*dT*dA*d[5mC]*dT*dA*d[5mC]*dG*d[5mC]*d[5mC]*dG*kT*k[5mC]*kA) [compound 936533]”, which EC50 [1] is on record?
The EC50 was 551 nM.

With “AF594-GksGksTks^mCdsGdsAds^mCds^mCdsGdsAdsAdsGdsTds^mCksAksTk (antisense GGTCGACCGAAGTCAT; 5'-AF594 label, cEt/MOE, 5-methylC, phosphorothioate, chemistry not fully specified) [compound 1024788]” as the substance, how does the EC50 [1] read?
Its EC50 is 525 nM.

Which EGFR signaling [2] does the source give for “^mCes^mCesAesGesGes^mCdsTdsGdsGdsTdsTdsAdsTdsGdsAds^mCesTes^mCesAesGe (antisense e[5mC]*e[5mC]*eA*eG*eG*d[5mC]*dT*dG*dG*dT*dT*dA*dT*dG*dA*e[5mC]*eT*e[5mC]*eA*eG) [compound 395251]” here?
Its EGFR signaling is “not be impacted”.

For “AF594-Gks^mCksAksTdsGdsTdsTds^mCdsTds^mCddsAds^mCdsAdsTksTksAk (antisense {AF594}-kG*k[5mC]*kA*dT*dG*dT*dT*d[5mC]*dT*d[5mC]*dA*d[5mC]*dA*kT*kT*kA) [compound 1055615]”, which EC50 [1] is on record?
Its EC50 is 746 nM.

With “^mCesGesTes^mCesGesTds^mCdsGdsTds^mCdsAdsTds^mCds^mCdsTds^mCesGesTes^mCes^mCe (antisense e[5mC]*eG*eT*e[5mC]*eG*dT*d[5mC]*dG*dT*d[5mC]*dA*dT*d[5mC]*d[5mC]*dT*e[5mC]*eG*eT*e[5mC]*e[5mC]) [compound 110080]” as the substance, how does the EGFR signaling [2] read?
The EGFR signaling was “not be impacted”.

What does the source list for “CTGCTAGCCTCTGGATTTGA (sugars from the 5' end e5 d10 e5, all phosphorothioate, methylation of C not given here) [compound 116847, 5-10-5 2′-MOE gapmer, phosphorothioate]”?
EGFR synthesis and degradation ([3]; 16 hours incubation, relative to cells not incubated with an ASO): unchanged; Relative Abundance of EGFR (%) ([3]; Time 0 hr): 103%; Relative Abundance of EGFR (%) ([3]; Time 4 hr): 91%; Relative Abundance of EGFR (%) ([3]; Time 16 hr): 69%; Relative Abundance of EGFR (%) ([3]; Time 24 hr): 54%; EGF-EGFR signaling ([2]; 16 hours incubation, then EGF): not affected; p-EGFR (%) ([2]; Time 0.5 hr): 89%; p-ERK (%) ([2]; Time 0.5 hr): 102%; p-EGFR (%) ([2]; Time 1 hr): 76%; p-ERK (%) ([2]; Time 1 hr): 94%; p-EGFR (%) ([2]; Time 2 hr): 85%; p-ERK (%) ([2]; Time 2 hr): 85%; p-EGFR (%) ([2]; Time 4 hr): 55%; p-ERK (%) ([2]; Time 4 hr): 87%; EC50 ([4]; Table 5): 181 nM; EC50 ([4]; Table 6): 1660 nM; Bret Ratio (% Max) ([5]; 0.01 nM, EGF added 0): 15.0 % Max; Bret Ratio (% Max) ([5]; 0.01 nM, EGF added 100 ng/mL): 13.3 % Max; Bret Ratio (% Max) ([5]; 0.03 nM, EGF added 0): 15.4 % Max; Bret Ratio (% Max) ([5]; 0.03 nM, EGF added 100 ng/mL): 12.4 % Max; Bret Ratio (% Max) ([5]; 0.1 nM, EGF added 0): 16.2 % Max; Bret Ratio (% Max) ([5]; 0.1 nM, EGF added 100 ng/mL): 13.2 % Max; Bret Ratio (% Max) ([5]; 0.30 nM, EGF added 0): 19.6 % Max; Bret Ratio (% Max) ([5]; 0.30 nM, EGF added 100 ng/mL): 15.1 % Max; Bret Ratio (% Max) ([5]; 1.0 nM, EGF added 0): 26.1 % Max; Bret Ratio (% Max) ([5]; 1.0 nM, EGF added 100 ng/mL): 18.0 % Max; Bret Ratio (% Max) ([5]; 3.0 nM, EGF added 0): 32.6 % Max; Bret Ratio (% Max) ([5]; 3.0 nM, EGF added 100 ng/mL): 24.2 % Max; Bret Ratio (% Max) ([5]; 10.0 nM, EGF added 0): 41.8 % Max; Bret Ratio (% Max) ([5]; 10.0 nM, EGF added 100 ng/mL): 30.7 % Max; Bret Ratio (% Max) ([5]; 30.0 nM, EGF added 0): 52.8 % Max; Bret Ratio (% Max) ([5]; 30.0 nM, EGF added 100 ng/mL): 39.7 % Max; Bret Ratio (% Max) ([5]; 100 nM, EGF added 0): 64.1 % Max; Bret Ratio (% Max) ([5]; 100 nM, EGF added 100 ng/mL): 54.7 % Max; Bret Ratio (% Max) ([5]; 300 nM, EGF added 0): 70.8 % Max; Bret Ratio (% Max) ([5]; 300 nM, EGF added 100 ng/mL): 63.8 % Max; Bret Ratio (% Max) ([5]; 1000 nM, EGF added 0): 82.9 % Max; Bret Ratio (% Max) ([5]; 1000 nM, EGF added 100 ng/mL): 77.4 % Max; Bret Ratio (% Max) ([5]; 3000 nM, EGF added 0): 99.5 % Max; Bret Ratio (% Max) ([5]; 3000 nM, EGF added 100 ng/mL): 94.2 % Max

“FITC-^mCeoTeoGeo^mCeoTeoAdoGdo^mCds^mCdoTdo^mCdoTdoGdoGdoAdoTeoTeoTeoGeoAe (antisense {FITC}-e[5mC]eTeGe[5mC]eTdAdGd[5mC]*d[5mC]dTd[5mC]dTdGdGdAeTeTeTeGeA) [PO-ASO, FITC-labeled phosphate oligonucleotide]” was tested. Which “interaction with EGF” value [6] did it give?
Its value is “did not appreciably interact”.

What about the “interaction with EGFR” value [7] of the same substance?
The value was “did not appreciably interact”.

“AF594-^mCes^mCesTesTes^mCes^mCds^mCdsTdsGdsAdsAdsGdsGdsTdsTds^mCes^mCesTes^mCes^mCe (antisense {AF594}-e[5mC]*e[5mC]*eT*eT*e[5mC]*d[5mC]*d[5mC]*dT*dG*dA*dA*dG*dG*dT*dT*e[5mC]*e[5mC]*eT*e[5mC]*e[5mC]) [compound 1024789]” was tested. Which EC50 [1] did it give?
The EC50 was 202 nM.

With “AesGesTes^mCesTesAdsGdsGdsGdsTds^mCdsAds^mCdsAdsAdsTes^mCesTesGesGe (antisense eA*eG*eT*e[5mC]*eT*dA*dG*dG*dG*dT*d[5mC]*dA*d[5mC]*dA*dA*eT*e[5mC]*eT*eG*eG) [compound 25699]” as the substance, how does the EGFR signaling [2] read?
Its EGFR signaling is “not be impacted”.
